The text below walks through data of patent US20030144346A1, “Methods and compositions for regulation of 5-alpha reductase activity” (priority 1997, published 2003).

A value given as a limit tells only on which side of the number the result lay.

Broadly, the inhibition is the share of the control response that was lost under treatment. Usually IC50 stands for the point on the concentration scale where inhibition reaches its midpoint.

Assay [1] deals with T1, type 2 human 5α-reductase (HRED2) (Homo sapiens, UniProt P31213).
T1 sequence (P31213 1-254): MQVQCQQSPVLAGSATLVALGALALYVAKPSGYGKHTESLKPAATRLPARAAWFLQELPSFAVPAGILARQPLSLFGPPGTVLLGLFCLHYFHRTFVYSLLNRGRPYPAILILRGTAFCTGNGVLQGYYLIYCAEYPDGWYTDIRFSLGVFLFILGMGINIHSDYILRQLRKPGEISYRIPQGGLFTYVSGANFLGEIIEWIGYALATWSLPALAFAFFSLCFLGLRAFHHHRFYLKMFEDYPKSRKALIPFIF
Description: Cell free assay of 5α-reductase, microsomes of rat 1A cells expressing type 2 isoenzyme (HRED2).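 Further: labeled testosterone and its product dihydrotestosterone measured in microsomal reaction extracts via thin layer chromatography plus radioanalytic scanning.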 Type of assay: biochemical. Further details: expressed in transfected cells; host or cells: rat 1A cells infected with pMV7 retrovirus; microsomes.

In assay [2] the target is T2, type 1 human 5α-reductase (HRED1) (Homo sapiens, UniProt P18405).
T2 sequence (P18405 1-259): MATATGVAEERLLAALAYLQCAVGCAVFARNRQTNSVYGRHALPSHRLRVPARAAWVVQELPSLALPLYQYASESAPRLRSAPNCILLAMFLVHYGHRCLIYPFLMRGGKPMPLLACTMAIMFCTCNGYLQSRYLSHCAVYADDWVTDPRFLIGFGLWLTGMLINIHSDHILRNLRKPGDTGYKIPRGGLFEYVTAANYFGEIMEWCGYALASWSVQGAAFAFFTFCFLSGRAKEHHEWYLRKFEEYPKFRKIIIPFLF
Description: Cell free assay of 5α-reductase, microsomes of rat 1A cells expressing type 1 isoenzyme (HRED1).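 Further: microsomes from rat 1A cells expressing human type 1 5α-reductase, conversion of radiolabeled testosterone to dihydrotestosterone quantified by thin layer chromatography with radioanalytic scanning.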 Type of assay: biochemical. Further details: expressed in transfected cells; host or cells: rat 1A cells infected with pMV7 retrovirus; microsomes.

Assay [3] addresses T1, type 2 human 5α-reductase (HRED2). The assay is described as follows: Whole cell assay of 5α-reductase, type 2 isoenzyme.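 On all read-outs here: intact rat 1A cells genetically modified to carry human type 2 5α-reductase served as the enzyme source.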 Type of assay: cell-based. Further details: expressed in transfected cells; host or cells: rat 1A cells infected with pMV7 retrovirus. To be noted: for inhibition at 100 µM / HRED2 % Inhibition @ 100 μM: Table 7; for IC50: Table 7, read-out: HCRED2 IC50.
Assay [4] deals with T2, type 1 human 5α-reductase (HRED1). The assay is described as follows: Whole cell assay of 5α-reductase, type 1 isoenzyme.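 Further: intact rat 1A cells engineered to express the human type 1 5α-reductase isozyme serve as the enzyme source.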 Type of assay: cell-based. Further details: expressed in transfected cells; host or cells: rat 1A cells infected with pMV7 retrovirus.
Setting [5] is: cell free assay, Table 2 catechols, read-out: HRED2 IC50.
[6] abbreviates: cell free assay, Table 2 catechols, read-out: HRED1 IC50.
[7] abbreviates: whole cell assay, Table 7, read-out: HCRED1 IC50.
Where [8] appears, read: cell free assay, Table 1 flavanoids, read-out: HRED2 IC50.
The mark [9] stands for this setting: read-out: HRED2 % Inhibition @ 100 uM.
Where [10] appears, read: cell free assay, Table 1 flavanoids, read-out: HRED1 IC50.
[11] abbreviates: read-out: HRED1 % Inhibition @ 100 uM.
The mark [12] stands for this setting: 100 uM, cell free assay, Table 1, read-out: HRED2 % Inhibition @ 100 uM.
Setting [13] is: 100 uM, cell free assay, Table 1, read-out: HRED1 % Inhibition @ 100 uM.
[14] abbreviates: cell free assay, Table 5 epigallocatechin derivatives, read-out: HRED2 IC50.
Setting [15] is: cell free assay, Table 5 epigallocatechin derivatives, read-out: HRED1 IC50.
[16] abbreviates: cell-free assay, read-out: IC50, type 1 isoenzyme.
Where [17] appears, read: 100 μM, cell free assay, Table 5.
Setting [18] is: 100 uM, cell free assay, Table 2.

For the molecule `CCCCCCCCCCCCOC(=O)c1cc(O)c(O)c(O)c1` [Dodecylgallate], the inhibition at 100 µM in assay [1] (100 uM, cell free assay, Table 2, read-out: HRED2 % Inhibition @ 100 uM) came out at 36%; in assay [2] (100 uM, cell free assay, Table 2, read-out: HRED1 % Inhibition @ 100 uM), 88%; in assay [3], 98%; in assay [4] (whole cell assay, Table 7) it was 99%. The half-maximal inhibitory concentration (IC50) in assay [1] (setting [5]) was above 100 µM; in assay [2] (setting [6]), 43 µM; in assay [3], 7 µM; in assay [4] (setting [7]), 3 µM. In addition, the “inhibitory activity in the whole cell assay, type 1 isoenzyme, in words” value in assay [4] (whole cell assay) is “active”.
As to `O=C(O[C@@H]1Cc2c(O)cc(O)cc2O[C@@H]1c1ccc(O)c(O)c1)c1cc(O)c(O)c(O)c1` [Epicatechin Gallate], the IC50 in assay [1] (setting [8]) was 60 µM; in assay [2] (setting [10]) it was 11 µM; in assay [3], above 100 µM; in assay [4] (setting [7]), above 100 µM. Besides, the inhibition at 100 µM worked out at 83% in assay [1] (setting [9]); 100% in assay [2] (setting [11]); 0% in assay [3]; 0% in assay [4] (whole cell assay, Table 7).
As to `Oc1cc(O)c2c(c1)O[C@H](c1ccc(O)c(O)c1)[C@H](O)C2` [Epicatechin], the inhibition at 100 µM in assay [1] (setting [12]) is 4%; in assay [2] (setting [13]), 14%; in assay [3], 1%; in assay [4] (whole cell assay, Table 7), 0%. Also, the IC50 in assay [1] (setting [8]), in assay [2] (setting [10]), in assay [3] and in assay [4] (setting [7]) was above 100 µM in each case.
With `Oc1cc(O)c2c(c1)O[C@H](c1cc(O)c(O)c(O)c1)[C@H](O)C2` [Epigallocatechin], the inhibition at 100 µM turned out to be 3% in assay [1] (setting [12]); 30% in assay [1] (100 μM, cell free assay, Table 5, read-out: HRED2 % Inhibition @ 100 μM); 15% in assay [2] (setting [13]); 61% in assay [2] (100 μM, cell free assay, Table 5, read-out: HRED1 % Inhibition @ 100 μM); 1% in assay [3]; 15% in assay [4] (whole cell assay, Table 7). Also, the IC50 is above 100 µM in assay [1] (setting [8]); above 100 µM in assay [1] (setting [14]); above 100 µM in assay [2] (setting [10]); 62 µM in assay [2] (setting [15]); above 100 µM in assay [3]; above 100 µM in assay [4] (setting [7]).
For `O=c1c(O)c(-c2ccc(O)c(O)c2)oc2cc(O)ccc12` [Fisetin], the inhibition at 100 µM in assay [1] (setting [12]) is 4%; in assay [2] (setting [13]), 97%; in assay [3], 27%; in assay [4] (whole cell assay, Table 7) it was 42%. Further, the half-inhibitory concentration (IC50) in assay [1] (setting [8]) was above 100 µM; in assay [2] (setting [10]), 57 µM; in assay [2] (setting [16]) it was below 100 µM; in assay [3] it was above 100 µM; in assay [4] (setting [7]), above 100 µM.
On to `CCCCC/C=C\C/C=C\C/C=C\CCCCC(=O)O` [Gamma-Linolenic Acid, Gamma-Linolenic Acid C18:3 CIS 6.9,12], for which the inhibition at 100 µM in assay [1] (100 μM, cell free assay, Table 6, read-out: HRED2 % Inhibition @ 100 μM) is 89%; in assay [2] (read-out: HRED1 % Inhibition @ 100 μM) it was 99%; in assay [3] it was 86%; in assay [4] (whole cell assay, Table 7) it was 91%. Moreover, the half-inhibitory concentration (IC50) in assay [1] (cell free assay, Table 6 fatty acids, read-out: HRED2 IC50) was found to be 11 µM; in assay [1] (cell-free assay, read-out: IC50, type 2 isoenzyme), 3 µM; in assay [2] (cell free assay, Table 6 fatty acids, read-out: HRED1 IC50), 5 µM; in assay [2] (setting [16]) it was 3 µM; in assay [3], 20 µM; in assay [4] (setting [7]), 22 µM.
As for `Cc1cc2c(C(C)C)c(O)c(O)c(C=O)c2c(O)c1-c1c(C)cc2c(C(C)C)c(O)c(O)c(C=O)c2c1O` [Gossypol], the half-maximal inhibitory concentration (IC50) turned out to be 21 µM in assay [1], 7 µM in assay [2], 6 µM in assay [3] and 7 µM in assay [4]. Also, the inhibition at 100 µM in assay [1] (setting [9]) was found to be 99%; in assay [2] (setting [11]), 99%; in assay [3], 99%; in assay [4] (whole cell assay, Table 7), 100%. Moreover, in assay [4] (whole cell assay), the “inhibitory activity in the whole cell assay, type 1 isoenzyme, in words” value is on record as “active”.
Take `COc1cc(C(=O)OC2Cc3c(O)cc(O)cc3OC2c2cc(O)c(O)c(O)c2)cc(OC)c1OC` (stereo not drawn) [HZIV 63]: the “HRED2 % Inhibition @ 100 μM” value in assay [1] (setting [17]) stood at 20%; in assay [3] it was 7%. The IC50 is above 100 µM in assay [1] (setting [14]), 311 µM in assay [2] (setting [15]), above 100 µM in assay [3] and above 100 µM in assay [4] (setting [7]). The “HRED1 % Inhibition @ 100 μM” value is reported as 94% in assay [2] (setting [17]) and 12% in assay [4] (whole cell assay, Table 7).
Turning to `Cc1c(O)cc(C(=O)OC2Cc3c(O)cc(O)cc3OC2c2cc(O)c(O)c(O)c2)cc1O` (stereo not drawn) [HZIV 68], the “HRED2 % Inhibition @ 100 μM” value in assay [1] (setting [17]) was 51%; in assay [3], 34%. Besides, the IC50 in assay [1] (setting [14]) was 99 µM; in assay [2] (setting [15]) it was 29 µM; in assay [3] it was above 100 µM; in assay [4] (setting [7]) it was above 100 µM. The “HRED1 % Inhibition @ 100 μM” value is reported as 93% in assay [2] (setting [17]) and 40% in assay [4] (whole cell assay, Table 7).
With `COc1cc(C(=O)OC2Cc3c(O)cc(O)cc3OC2c2cc(O)c(O)c(O)c2)cc(OC)c1O` (stereo not drawn) [HZIV 75], the results for the “HRED2 % Inhibition @ 100 μM” value in assay [1] (setting [17]) and in assay [3] were 21% and 72%, respectively. The IC50 in assay [1] (setting [14]) was above 100 µM; in assay [2] (setting [15]), 29 µM; in assay [3] it was 62 µM; in assay [4] (setting [7]) it was 43 µM. The “HRED1 % Inhibition @ 100 μM” value in assay [2] (setting [17]) turned out to be 97%; in assay [4] (whole cell assay, Table 7), 83%.
Regarding `COc1cc(CCNC(=O)C=Cc2ccc(O)c(O)c2)ccc1O` [HZIV 90], the “HRED2 % Inhibition @ 100 uM” value in assay [1] (setting [18]) stood at 13%. Also, the half-inhibitory concentration (IC50) in assay [1] (setting [5]), in assay [2] (setting [6]), in assay [3] and in assay [4] (setting [7]) was above 100 µM in each case. Further, the “HRED1 % Inhibition @ 100 uM” value in assay [2] (setting [18]) stood at 23%. Besides, the “HRED2 % Inhibition @ 100 μM” value in assay [3] was 14%. In assay [4] (whole cell assay, Table 7), the “HRED1 % Inhibition @ 100 μM” value worked out at 34%.
Take `CN(C)c1ccc(C(=O)OC2Cc3c(O)cc(O)cc3OC2c2cc(O)c(O)c(O)c2)cc1` (stereo not drawn) [HZIV 92]: the “HRED2 % Inhibition @ 100 μM” value is listed as 45% in assay [1] (setting [17]) and 62% in assay [3]. Moreover, the IC50 in assay [1] (setting [14]) was above 100 µM; in assay [2] (setting [15]), 23 µM; in assay [3] it was 80 µM; in assay [4] (setting [7]), 64 µM. Besides, the “HRED1 % Inhibition @ 100 μM” value was found to be 98% in assay [2] (setting [17]) and 94% in assay [4] (whole cell assay, Table 7).
As for `O=C(OC1Cc2c(O)cc(O)cc2OC1c1cc(O)c(O)c(O)c1)c1ccncc1` (stereo not drawn) [HZIV 107], the “HRED2 % Inhibition @ 100 μM” value worked out at 39% in assay [1] (setting [17]) and 2% in assay [3]. The IC50 in assay [1] (setting [14]) is above 100 µM; in assay [2] (setting [15]) it was 98 µM; in assay [3], above 100 µM; in assay [4] (setting [7]), above 100 µM. The “HRED1 % Inhibition @ 100 μM” value in assay [2] (setting [17]) is 52%; in assay [4] (whole cell assay, Table 7) it was 23%.
As to `O=C(OC1Cc2c(O)cc(O)cc2OC1c1cc(O)c(O)c(O)c1)c1ccc2ccccc2c1` (stereo not drawn) [HZIV 120], the “HRED2 % Inhibition @ 100 μM” value in assay [1] (setting [17]) was found to be 97%; in assay [3], 96%. In addition, the IC50 was 66 µM in assay [1] (setting [14]), 23 µM in assay [2] (setting [15]), 57 µM in assay [3] and 49 µM in assay [4] (setting [7]). Further, the “HRED1 % Inhibition @ 100 μM” value was 99% in assay [2] (setting [17]) and 97% in assay [4] (whole cell assay, Table 7).
With `CCCCCC=CCC=CCC=CCCCCC(=O)OC1Cc2c(O)cc(O)cc2OC1c1cc(O)c(O)c(O)c1` (stereo not drawn) [HZIV 142], the entries for the “HRED2 % Inhibition @ 100 μM” value in assay [1] (setting [17]) and in assay [3] were 93% and 98%, respectively. In addition, the IC50 in assay [1] (setting [14]) came to 63 µM; in assay [2] (setting [15]), 25 µM; in assay [3], 14 µM; in assay [4] (setting [7]) it was 8 µM. Besides, the “HRED1 % Inhibition @ 100 μM” value in assay [2] (setting [17]) turned out to be 97%; in assay [4] (whole cell assay, Table 7) it was 99%.
